In DBAASP:
≈ marks a conversion by molar mass, not a printed value. One block for each compound: values may come before it.

Tests used:
Assay in all cases: ≥ marks a high value that may be exact or a test limit, other limits are often not marked, values filed in µg/mL are converted to µM
[1] = tested on: Escherichia coli ATCC 25922
[2] = tested on: Pseudomonas aeruginosa 21328
[3] = tested on: Pseudomonas aeruginosa 25349
[4] = tested on: Pseudomonas aeruginosa CICC 10419
[5] = tested on: Pseudomonas aeruginosa CICC 11411
[6] = tested on: Pseudomonas aeruginosa CICC 11421
[7] = tested on: Pseudomonas aeruginosa CICC 11431
[8] = tested on: Pseudomonas aeruginosa CICC 21625
[9] = tested on: Pseudomonas aeruginosa CICC 21630
[10] = tested on: Staphylococcus aureus ATCC 29213
[11] = tested on: Acinetobacter baumannii ATCC 17978
Acinetobacter baumannii = tested on: Acinetobacter baumannii
Candida albicans 17-88 = tested on: Candida albicans 17-88
[12] = tested on: Candida albicans NRRL Y-326
[13] = tested on: Candida albicans NRRL Y-6359
Candida albicans = tested on: Candida albicans
Candida dubliniensis = tested on: Candida dubliniensis
Candida glabrata = tested on: Candida glabrata
Candida krusei = tested on: Candida krusei
[14] = tested on: Candida parapsilosis NRRL Y-1761
[15] = tested on: Candida parapsilosis NRRL Y-1763
Candida parapsilosis = tested on: Candida parapsilosis
Candida tropicalis = tested on: Candida tropicalis
[16] = tested on: Cutibacterium acnes ATCC 11827
[17] = tested on: Cutibacterium acnes ATCC 6919
Cutibacterium acnes = tested on: Cutibacterium acnes
Debaryomyces hansenii = tested on: Debaryomyces hansenii
Enterobacter cloacae = tested on: Enterobacter cloacae
[18] = tested on: Klebsiella pneumoniae ATCC 10031
Klebsiella pneumoniae = tested on: Klebsiella pneumoniae
Kluyveromyces lactis = tested on: Kluyveromyces lactis
[19] = tested on: Pseudomonas aeruginosa ATCC 19660
[20] = tested on: Pseudomonas aeruginosa ATCC 27853
Pseudomonas aeruginosa = tested on: Pseudomonas aeruginosa
[21] = tested on: Staphylococcus aureus ATCC 33592
Staphylococcus aureus MR = tested on: Staphylococcus aureus MR
Staphylococcus aureus = tested on: Staphylococcus aureus
[22] = tested on: Staphylococcus epidermidis ATCC 51625
[23] = tested on: Candida albicans NCYC 1467
[24] = tested on: Enterococcus faecalis NCTC 12697
[25] = tested on: Escherichia coli NCTC 10418
[26] = tested on: Staphylococcus aureus NCTC 10788
[27] = tested on: Staphylococcus aureus NCTC 12493
[28] = tested on: Acinetobacter baumannii ATCC 17978D-5
[29] = tested on: Enterococcus faecium ATCC 700221
[30] = tested on: Klebsiella aerogenes ATCC 13048
[31] = tested on: Staphylococcus aureus ATCC 33591
[32] = tested on: Streptococcus pneumoniae ATCC 49619
[33] = tested on: Streptococcus mutans ATCC UA159

MIC [23]: 4 µM (≈ 11.8 µg/mL) | MIC [24]: ≥ 32 µM | MIC [25]: 8 µM (≈ 23.6 µg/mL) | MIC [20]: 16 µM (≈ 47.2 µg/mL) | MIC [26]: 4 µM (≈ 11.8 µg/mL) | MIC [27]: 8 µM (≈ 23.6 µg/mL)
Structure (SMILES): CSCC[C@H](NC(=O)[C@H](CC(=O)O)NC(=O)[C@@H](NC(=O)[C@@H](NC(=O)[C@H](C)NC(=O)[C@H](CC(N)=O)NC(=O)[C@H](CC(C)C)NC(=O)[C@H](C)NC(=O)[C@H](C)NC(=O)[C@H](CCCCN)NC(=O)CNC(=O)[C@H](C)NC(=O)[C@H](C)NC(=O)[C@H](CCCCN)NC(=O)CNC(=O)[C@@H](NC(=O)[C@H](Cc1cnc[nH]1)NC(=O)[C@H](CCCCN)NC(=O)[C@H](CC(C)C)NC(=O)[C@H](CC(C)C)NC(=O)[C@@H](NC(=O)[C@H](CCCCN)NC(=O)[C@H](Cc1c[nH]c2ccccc12)NC(=O)[C@H](CC(C)C)NC(=O)[C@H](C)N)[C@@H](C)O)C(C)C)C(C)C)[C@@H](C)O)C(=O)N[C@H](C(=O)N[C@@H](CC(N)=O)C(=O)N[C@@H](CCC(N)=O)C(N)=O)C(C)C [ALWKTLLKHVGKAAGKAALNAVTDMVNQ]

MIC [28]: 5.28 µM (≈ 16 µg/mL) | MIC [29]: 5.28 µM (≈ 16 µg/mL) | MIC [30]: 10.6 µM (≈ 32 µg/mL) | MIC [19]: 10.6 µM (≈ 32 µg/mL) | MIC [20]: 10.6 µM (≈ 32 µg/mL) | MIC [31]: 10.6 µM (≈ 32 µg/mL) | MIC [22]: 5.28 µM (≈ 16 µg/mL) | MIC [32]: 10.6 µM (≈ 32 µg/mL)
Structure (SMILES): C[C@H](NC(=O)[C@H](Cc1ccccc1)NC(=O)CNC(=O)[C@@H]1CCCN1C(=O)[C@@H](N)CS)C(=O)N[C@@H](CCCCN)C(=O)N[C@@H](CCCCN)C(=O)N[C@@H](Cc1ccccc1)C(=O)N[C@@H](C)C(=O)N[C@@H](CCCCN)C(=O)N[C@@H](CCCCN)C(=O)N[C@@H](Cc1ccccc1)C(=O)N[C@@H](CCCCN)C(=O)N[C@@H](CCCCN)C(=O)N[C@@H](Cc1ccccc1)C(=O)N[C@@H](C)C(=O)N[C@@H](CCCCN)C(=O)N[C@@H](CCCCN)C(=O)N[C@@H](Cc1ccccc1)C(=O)N[C@@H](C)C(=O)N[C@@H](CCCCN)C(=O)N[C@@H](Cc1ccccc1)C(=O)N[C@@H](C)C(=O)N[C@@H](Cc1ccccc1)C(=O)N[C@@H](C)C(=O)N[C@@H](Cc1ccccc1)C(=O)O [CPGFAKKFAKKFKKFAKKFAKFAFAF]

MIC [33]: 13.5 µM (≈ 32 µg/mL)
Structure (SMILES): CC[C@H](C)[C@H](NC(=O)[C@H](CCCCN)NC(=O)[C@H](CCCN=C(N)N)NC(=O)[C@@H](NC(=O)[C@@H](N)Cc1ccc(O)cc1)[C@@H](C)CC)C(=O)N[C@@H](CCCN=C(N)N)C(=O)N[C@@H](CCCN=C(N)N)C(=O)N[C@@H](Cc1ccccc1)C(=O)N[C@@H](Cc1ccccc1)C(=O)N[C@@H](CCCCN)C(=O)N[C@H](C(=O)N[C@@H](CC(C)C)C(=O)N[C@@H](CC(N)=O)C(=O)N[C@@H](CCCCN)C(=O)N[C@@H](CC(N)=O)C(=O)N[C@@H](CC(C)C)C(=O)N[C@@H](CCCCN)C(=O)N[C@@H](CCCCN)C(N)=O)[C@@H](C)O [YIRKIRRFFKTLNKNLKK]

Second part, the compound before the results:

Structure (SMILES): CC(C)C[C@H](NC(=O)[C@H](CCCN=C(N)N)NC(=O)[C@H](CCCN=C(N)N)NC(=O)[C@H](CC(C)C)NC(=O)[C@H](CCCN=C(N)N)NC(=O)[C@H](CCCN=C(N)N)NC(=O)[C@H](CCCN=C(N)N)NC(=O)[C@H](Cc1c[nH]c2ccccc12)NC(=O)[C@H](Cc1c[nH]c2ccccc12)NC(=O)[C@H](CCCN=C(N)N)NC(=O)[C@H](CCCN=C(N)N)NC(=O)[C@H](CCCN=C(N)N)NC(=O)[C@H](CC(C)C)NC(=O)[C@H](CCCN=C(N)N)NC(=O)[C@H](CCCN=C(N)N)NC(=O)[C@@H](N)CC(C)C)C(N)=O [LRRLRRRWWRRRLRRL]
MIC [1]: 6.65 µM (≈ 16 µg/mL) | MIC [2]: 13.3 µM (≈ 32 µg/mL) | MIC [3]: 4.7 µM (≈ 11.3 µg/mL) | MIC [4]: 6.65 µM (≈ 16 µg/mL) | MIC [5]: 3.33 µM (≈ 8 µg/mL) | MIC [6]: 6.65 µM (≈ 16 µg/mL) | MIC [7]: 6.65 µM (≈ 16 µg/mL) | MIC [8]: 6.65 µM (≈ 16 µg/mL) | MIC [9]: 3.33 µM (≈ 8 µg/mL) | MIC [10]: 3.33 µM (≈ 8 µg/mL)

Structure (SMILES): CC[C@H](C)[C@@H]1NC(=O)CNC(=O)[C@H](CCCCN)NC(=O)[C@H](Cc2ccc(O)cc2)NC(=O)[C@@H]2CSSC[C@H](NC1=O)C(=O)N[C@@H](Cc1ccccc1)C(=O)N[C@@H](CCCCN)C(=O)N[C@@H](CCCCN)C(=O)N[C@H](C(=O)N[C@@H](CCCCN)C(N)=O)CSSC[C@H](NC(=O)[C@H](Cc1ccccc1)NC(=O)[C@@H](N)CCCN=C(N)N)C(=O)N[C@@H](Cc1c[nH]c3ccccc13)C(=O)N[C@@H](CCCCN)C(=O)N[C@@H](C(C)C)C(=O)N2 [RFCWKVCYKGICFKKCK]
MIC [11]: 7.47 µM (≈ 16 µg/mL) | MIC (Acinetobacter baumannii): 3.74 µM (≈ 7.98 µg/mL) | MIC (Candida albicans 17-88): 15 µM (≈ 32 µg/mL) | MIC [12]: 7.47 µM (≈ 16 µg/mL) | MIC [13]: 1.87 µM (≈ 3.99 µg/mL) | MIC (Candida albicans): 10.6 µM (≈ 22.7 µg/mL) | MIC (Candida dubliniensis): 7.5 µM (≈ 16 µg/mL) | MIC (Candida glabrata): 15 µM (≈ 32 µg/mL) | MIC (Candida krusei): 10.6 µM (≈ 22.7 µg/mL) | MIC [14]: 7.47 µM (≈ 16 µg/mL) | MIC [15]: 0.934 µM (≈ 2 µg/mL) | MIC (Candida parapsilosis): 15 µM (≈ 32 µg/mL) | MIC (Candida tropicalis): 2.65 µM (≈ 5.66 µg/mL) | MIC [16]: 3.74 µM (≈ 7.98 µg/mL) | MIC [17]: 3.74 µM (≈ 7.98 µg/mL) | MIC (Cutibacterium acnes): 1.87 µM (≈ 3.99 µg/mL) | MIC (Debaryomyces hansenii): 7.5 µM (≈ 16 µg/mL) | MIC (Enterobacter cloacae): 3.74 µM (≈ 7.98 µg/mL) | MIC [18]: 3.74 µM (≈ 7.98 µg/mL) | MIC (Klebsiella pneumoniae): 2.64 µM (≈ 5.64 µg/mL) | MIC (Kluyveromyces lactis): 3.7 µM (≈ 7.9 µg/mL) | MIC [19]: 1.87 µM (≈ 3.99 µg/mL) | MIC [20]: 1.87 µM (≈ 3.99 µg/mL) | MIC (Pseudomonas aeruginosa): 1.87 µM (≈ 3.99 µg/mL) | MIC [21]: 1.87 µM (≈ 3.99 µg/mL) | MIC (Staphylococcus aureus MR): 1.87 µM (≈ 3.99 µg/mL) | MIC (Staphylococcus aureus): 2.64 µM (≈ 5.64 µg/mL) | MIC [22]: 3.74 µM (≈ 7.98 µg/mL)
